Measured values reported in the supplement of paper PMC10307832.

The cell lines below were run with CC(C)N(CCCNC(=O)Nc1ccc(C(C)(C)C)cc1)C[C@H]1O[C@@H](n2ccc3c(N)ncnc32)[C@H](O)[C@@H]1O + Cc1nc(NC(=O)N2CCC[C@H]2C(N)=O)sc1-c1ccnc(C(C)(C)C(F)(F)F)c1 [Alpelisib] (partner 2 µM) (assay: relative viability (nuclei count vs DMSO), 5 days (fraction); higher = more cells survive). Conditions: first compound 0.08 µM.
Method in brief: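 Five library-drug doses in √10 steps were combined with a fixed anchor-drug dose, or a single drug was given alone, by pin tool to lung cancer cell lines in 1536-well plates the day after seeding. Nuclei were stained and counted after 5 days. Relative viability is the nuclei count in treated wells over that in vehicle wells, taken as the median of duplicate plates.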

With SK-LU-1 as the cell line, how does the relative viability read?
Its relative viability is 1.22.

Same assay, conditions: first compound 0.253 µM

Which relative viability does the source give for PC-14 here?
Its relative viability is 0.818.

Which relative viability does the source give for EBC-1 here?
The relative viability was 0.825.

For NCI-H1703, which relative viability is on record?
Its relative viability is 0.322.

How did the relative viability turn out when NCI-H2009 was run?
Its relative viability is 1.15.

NCI-H1993 was tested. Which relative viability did it give?
Its relative viability is 0.786.

For NCI-H520, which relative viability is on record?
The relative viability was 0.879.

How did the relative viability turn out when PC-3 [JPC-3] was run?
The relative viability was 1.

LCLC-103H was tested. Which relative viability did it give?
Its relative viability is 0.905.

EMC-BAC-2 was tested. Which relative viability did it give?
Its relative viability is 0.753.

For NCI-H2087, which relative viability is on record?
Its relative viability is 1.21.

For Calu-6, which relative viability is on record?
Its relative viability is 1.01.

HCC-366 was tested. Which relative viability did it give?
Its relative viability is 0.442.

For NCI-H1666, which relative viability is on record?
Its relative viability is 0.825.

NCI-H650 was tested. Which relative viability did it give?
Its relative viability is 1.09.

Which relative viability does the source give for LK-2 here?
The relative viability was 1.02.

NCI-H2126 was tested. Which relative viability did it give?
The relative viability was 0.712.

SK-MES-1 was tested. Which relative viability did it give?
The relative viability was 0.897.

How did the relative viability turn out when H3255 was run?
The relative viability was 0.711.

Which relative viability does the source give for COR-L23 here?
Its relative viability is 0.765.

With COR-L 105 as the cell line, how does the relative viability read?
Its relative viability is 1.08.

IA-LM was tested. Which relative viability did it give?
Its relative viability is 0.759.

How did the relative viability turn out when LOU-NH91 was run?
The relative viability was 0.679.

For HCC-44, which relative viability is on record?
Its relative viability is 0.785.

For A549, which relative viability is on record?
Its relative viability is 0.848.

Which relative viability does the source give for NCI-H2023 here?
Its relative viability is 0.619.

With NCI-H1299 as the cell line, how does the relative viability read?
The relative viability was 1.03.

For NCI-H661, which relative viability is on record?
Its relative viability is 0.61.

For NCI-H1792, which relative viability is on record?
Its relative viability is 0.497.

How did the relative viability turn out when NCI-H1563 was run?
Its relative viability is 0.907.

For SW 1573, which relative viability is on record?
The relative viability was 0.708.

Which relative viability does the source give for SK-LU-1 here?
The relative viability was 1.15.

Same assay, conditions: first compound 0.8 µM

How did the relative viability turn out when PC-14 was run?
The relative viability was 0.988.

With EBC-1 as the cell line, how does the relative viability read?
The relative viability was 0.739.

Which relative viability does the source give for NCI-H1703 here?
The relative viability was 0.304.

For NCI-H2009, which relative viability is on record?
Its relative viability is 1.22.

How did the relative viability turn out when NCI-H1993 was run?
The relative viability was 0.619.

How did the relative viability turn out when NCI-H520 was run?
The relative viability was 0.758.

PC-3 [JPC-3] was tested. Which relative viability did it give?
The relative viability was 0.896.

With LCLC-103H as the cell line, how does the relative viability read?
Its relative viability is 0.907.

With NCI-H647 as the cell line, how does the relative viability read?
The relative viability was 1.08.

NCI-H2228 was tested. Which relative viability did it give?
The relative viability was 0.796.

For EMC-BAC-2, which relative viability is on record?
Its relative viability is 0.722.

For NCI-H2087, which relative viability is on record?
Its relative viability is 1.14.

For Calu-6, which relative viability is on record?
The relative viability was 1.02.

HCC-366 was tested. Which relative viability did it give?
The relative viability was 0.366.

NCI-H1666 was tested. Which relative viability did it give?
The relative viability was 0.895.

Which relative viability does the source give for NCI-H650 here?
The relative viability was 1.21.

LK-2 was tested. Which relative viability did it give?
The relative viability was 1.01.

With NCI-H2126 as the cell line, how does the relative viability read?
Its relative viability is 0.78.

How did the relative viability turn out when SK-MES-1 was run?
Its relative viability is 0.754.

How did the relative viability turn out when H3255 was run?
The relative viability was 0.662.

COR-L23 was tested. Which relative viability did it give?
Its relative viability is 0.791.

COR-L 105 was tested. Which relative viability did it give?
Its relative viability is 1.06.

With IA-LM as the cell line, how does the relative viability read?
Its relative viability is 0.787.

With HCC-44 as the cell line, how does the relative viability read?
The relative viability was 0.744.

With A549 as the cell line, how does the relative viability read?
The relative viability was 0.948.

Which relative viability does the source give for NCI-H2023 here?
Its relative viability is 0.619.

For NCI-H1299, which relative viability is on record?
The relative viability was 1.07.

Which relative viability does the source give for NCI-H661 here?
The relative viability was 1.03.

With NCI-H1792 as the cell line, how does the relative viability read?
Its relative viability is 0.688.

For NCI-H1563, which relative viability is on record?
The relative viability was 1.09.

How did the relative viability turn out when SW 1573 was run?
Its relative viability is 0.734.

With SK-LU-1 as the cell line, how does the relative viability read?
The relative viability was 1.28.

Same assay, conditions: first compound 2.53 µM

How did the relative viability turn out when PC-14 was run?
Its relative viability is 0.964.

Which relative viability does the source give for EBC-1 here?
The relative viability was 0.848.

NCI-H1703 was tested. Which relative viability did it give?
The relative viability was 0.439.

Which relative viability does the source give for NCI-H2009 here?
The relative viability was 1.22.

How did the relative viability turn out when NCI-H1993 was run?
Its relative viability is 0.675.

How did the relative viability turn out when NCI-H520 was run?
The relative viability was 0.789.

For PC-3 [JPC-3], which relative viability is on record?
Its relative viability is 1.

Which relative viability does the source give for LCLC-103H here?
Its relative viability is 0.99.

Which relative viability does the source give for NCI-H647 here?
Its relative viability is 1.05.

For NCI-H2228, which relative viability is on record?
Its relative viability is 0.76.

EMC-BAC-2 was tested. Which relative viability did it give?
Its relative viability is 0.721.

For NCI-H2087, which relative viability is on record?
The relative viability was 1.24.

For Calu-6, which relative viability is on record?
Its relative viability is 1.09.

HCC-366 was tested. Which relative viability did it give?
Its relative viability is 0.367.

With NCI-H1666 as the cell line, how does the relative viability read?
Its relative viability is 0.943.

Which relative viability does the source give for NCI-H650 here?
Its relative viability is 1.13.

For LK-2, which relative viability is on record?
Its relative viability is 0.934.

Which relative viability does the source give for NCI-H2126 here?
The relative viability was 0.783.

With SK-MES-1 as the cell line, how does the relative viability read?
Its relative viability is 0.945.

Which relative viability does the source give for H3255 here?
Its relative viability is 0.714.

Which relative viability does the source give for COR-L23 here?
The relative viability was 0.955.

For COR-L 105, which relative viability is on record?
Its relative viability is 1.02.

IA-LM was tested. Which relative viability did it give?
Its relative viability is 0.701.

With LOU-NH91 as the cell line, how does the relative viability read?
Its relative viability is 0.753.

With HCC-44 as the cell line, how does the relative viability read?
Its relative viability is 0.787.

Which relative viability does the source give for A549 here?
Its relative viability is 0.723.

With NCI-H2023 as the cell line, how does the relative viability read?
The relative viability was 0.68.

With NCI-H1299 as the cell line, how does the relative viability read?
The relative viability was 1.02.

NCI-H661 was tested. Which relative viability did it give?
The relative viability was 0.63.

With NCI-H1792 as the cell line, how does the relative viability read?
The relative viability was 0.696.

For NCI-H1563, which relative viability is on record?
Its relative viability is 0.973.

For SW 1573, which relative viability is on record?
Its relative viability is 0.949.

With SK-LU-1 as the cell line, how does the relative viability read?
The relative viability was 1.16.

Same assay, conditions: first compound 8 µM

PC-14 was tested. Which relative viability did it give?
Its relative viability is 0.794.

EBC-1 was tested. Which relative viability did it give?
Its relative viability is 0.704.

With NCI-H1703 as the cell line, how does the relative viability read?
The relative viability was 0.318.

For NCI-H2009, which relative viability is on record?
The relative viability was 1.18.

With NCI-H1993 as the cell line, how does the relative viability read?
Its relative viability is 0.751.

With NCI-H520 as the cell line, how does the relative viability read?
Its relative viability is 0.861.

PC-3 [JPC-3] was tested. Which relative viability did it give?
Its relative viability is 1.01.

LCLC-103H was tested. Which relative viability did it give?
Its relative viability is 0.898.

Which relative viability does the source give for NCI-H647 here?
The relative viability was 1.25.

With NCI-H2228 as the cell line, how does the relative viability read?
The relative viability was 0.745.

Which relative viability does the source give for EMC-BAC-2 here?
Its relative viability is 0.706.

With NCI-H2087 as the cell line, how does the relative viability read?
Its relative viability is 1.11.

Which relative viability does the source give for Calu-6 here?
Its relative viability is 0.984.

How did the relative viability turn out when HCC-366 was run?
Its relative viability is 0.41.

Which relative viability does the source give for NCI-H1666 here?
Its relative viability is 1.02.

For NCI-H650, which relative viability is on record?
Its relative viability is 0.958.

LK-2 was tested. Which relative viability did it give?
The relative viability was 1.02.

How did the relative viability turn out when NCI-H2126 was run?
The relative viability was 0.722.

How did the relative viability turn out when SK-MES-1 was run?
The relative viability was 0.838.

With H3255 as the cell line, how does the relative viability read?
Its relative viability is 0.665.

Which relative viability does the source give for COR-L23 here?
Its relative viability is 0.759.

Which relative viability does the source give for COR-L 105 here?
The relative viability was 0.974.

For IA-LM, which relative viability is on record?
Its relative viability is 0.723.

For LOU-NH91, which relative viability is on record?
The relative viability was 0.663.

Which relative viability does the source give for HCC-44 here?
The relative viability was 0.806.

A549 was tested. Which relative viability did it give?
Its relative viability is 0.659.

With NCI-H2023 as the cell line, how does the relative viability read?
The relative viability was 0.622.

For NCI-H1299, which relative viability is on record?
The relative viability was 1.04.

How did the relative viability turn out when NCI-H661 was run?
The relative viability was 0.645.

For NCI-H1792, which relative viability is on record?
The relative viability was 0.668.

How did the relative viability turn out when NCI-H1563 was run?
Its relative viability is 0.991.

Which relative viability does the source give for SW 1573 here?
The relative viability was 0.667.

How did the relative viability turn out when SK-LU-1 was run?
Its relative viability is 1.01.
